Two compounds from publication PMC7613998, “Development of selective inhibitors of phosphatidylinositol 3-kinase C2α” (Nature Chemical Biology, 2022) can be followed below.

Test in all cases: biochemical
Holding throughout (set-up): SelectScreen Z'-LYTE purified kinase panel, per cent inhibition, mean of two points

The target of one assay is PAK2 (PAK65) (Homo sapiens, UniProt Q13177). The settings on record: (μM)=Km app.
The next assay addresses T1, PDK1 (Homo sapiens, UniProt O15530).
T1 construct: gene PDPK1
T1 sequence (O15530 1-556): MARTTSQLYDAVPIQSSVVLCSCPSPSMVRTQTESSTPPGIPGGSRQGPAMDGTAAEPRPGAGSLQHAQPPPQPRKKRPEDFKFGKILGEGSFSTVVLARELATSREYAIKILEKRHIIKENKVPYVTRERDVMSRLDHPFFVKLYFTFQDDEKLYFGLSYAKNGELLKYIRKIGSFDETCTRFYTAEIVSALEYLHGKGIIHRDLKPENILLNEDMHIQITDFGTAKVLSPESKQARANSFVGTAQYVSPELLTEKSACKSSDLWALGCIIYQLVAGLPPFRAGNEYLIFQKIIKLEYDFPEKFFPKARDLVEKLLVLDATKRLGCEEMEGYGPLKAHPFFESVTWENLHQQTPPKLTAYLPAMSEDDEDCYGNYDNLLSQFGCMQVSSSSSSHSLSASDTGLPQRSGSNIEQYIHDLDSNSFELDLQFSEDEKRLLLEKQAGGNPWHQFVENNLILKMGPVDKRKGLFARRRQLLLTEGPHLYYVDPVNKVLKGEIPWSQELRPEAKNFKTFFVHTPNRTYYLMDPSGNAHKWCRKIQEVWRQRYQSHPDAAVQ
The settings on record: (μM)=100.

In another assay the target is T2, DCAMKL1 (DCLK1) (Homo sapiens, UniProt O15075).
T2 sequence (O15075 1-740): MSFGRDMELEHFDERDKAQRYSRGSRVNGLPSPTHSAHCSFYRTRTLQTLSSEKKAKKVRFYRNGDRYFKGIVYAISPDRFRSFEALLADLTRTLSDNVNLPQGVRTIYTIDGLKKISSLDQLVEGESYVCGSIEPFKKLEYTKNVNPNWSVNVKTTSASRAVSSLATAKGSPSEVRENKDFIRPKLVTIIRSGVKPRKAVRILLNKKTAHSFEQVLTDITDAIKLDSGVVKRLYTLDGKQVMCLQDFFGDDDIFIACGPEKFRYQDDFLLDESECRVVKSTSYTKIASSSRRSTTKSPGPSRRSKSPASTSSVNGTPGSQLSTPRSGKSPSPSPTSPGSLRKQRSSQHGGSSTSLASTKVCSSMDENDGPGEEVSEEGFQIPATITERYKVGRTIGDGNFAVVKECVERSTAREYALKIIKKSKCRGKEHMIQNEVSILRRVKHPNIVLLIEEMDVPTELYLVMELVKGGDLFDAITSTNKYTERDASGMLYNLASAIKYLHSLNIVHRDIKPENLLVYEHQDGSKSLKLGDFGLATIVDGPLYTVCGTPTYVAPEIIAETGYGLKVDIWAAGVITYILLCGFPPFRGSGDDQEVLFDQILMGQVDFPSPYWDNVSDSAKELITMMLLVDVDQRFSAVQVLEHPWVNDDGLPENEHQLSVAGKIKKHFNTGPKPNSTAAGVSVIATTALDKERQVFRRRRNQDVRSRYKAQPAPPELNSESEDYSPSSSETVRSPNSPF
The settings on record: (μM)=Km app.

In another assay the target is AKT1 (PKB alpha) (Homo sapiens, UniProt P31749). The settings on record: (μM)=Km app.
The next assay has as its target PLK3 (Homo sapiens, UniProt Q9H4B4). The settings on record: (μM)=Km app.
A further assay deals with T3, FLT3 (Homo sapiens, UniProt P36888).
T3 sequence (P36888 1-993): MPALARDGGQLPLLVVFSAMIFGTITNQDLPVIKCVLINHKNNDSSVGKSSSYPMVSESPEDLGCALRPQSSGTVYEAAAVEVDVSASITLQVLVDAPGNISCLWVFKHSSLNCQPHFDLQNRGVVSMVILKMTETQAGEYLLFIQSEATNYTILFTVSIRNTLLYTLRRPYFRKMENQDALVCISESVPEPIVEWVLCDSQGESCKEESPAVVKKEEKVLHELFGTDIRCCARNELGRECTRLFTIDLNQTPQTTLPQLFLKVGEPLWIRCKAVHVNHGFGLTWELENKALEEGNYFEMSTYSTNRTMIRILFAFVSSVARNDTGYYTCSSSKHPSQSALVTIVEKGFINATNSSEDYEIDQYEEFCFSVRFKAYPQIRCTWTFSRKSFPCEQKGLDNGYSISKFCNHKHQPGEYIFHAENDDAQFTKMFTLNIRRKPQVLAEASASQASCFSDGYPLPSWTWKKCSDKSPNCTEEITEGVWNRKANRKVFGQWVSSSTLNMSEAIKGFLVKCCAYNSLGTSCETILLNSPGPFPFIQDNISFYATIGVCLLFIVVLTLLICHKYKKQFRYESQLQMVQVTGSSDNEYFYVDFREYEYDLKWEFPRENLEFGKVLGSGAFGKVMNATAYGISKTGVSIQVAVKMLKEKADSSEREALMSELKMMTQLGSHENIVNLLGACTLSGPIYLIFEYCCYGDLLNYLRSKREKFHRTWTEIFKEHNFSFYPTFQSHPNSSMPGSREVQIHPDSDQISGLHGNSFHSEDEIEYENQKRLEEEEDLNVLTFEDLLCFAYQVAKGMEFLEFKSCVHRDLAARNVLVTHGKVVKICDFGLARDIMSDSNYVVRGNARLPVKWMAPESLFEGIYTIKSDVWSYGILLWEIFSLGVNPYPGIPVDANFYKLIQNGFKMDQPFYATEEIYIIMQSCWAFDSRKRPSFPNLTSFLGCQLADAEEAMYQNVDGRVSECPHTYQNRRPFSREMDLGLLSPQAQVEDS
The settings on record: (μM)=Km app.

PAK2 (PAK65), sequence (Q13177 whole entry): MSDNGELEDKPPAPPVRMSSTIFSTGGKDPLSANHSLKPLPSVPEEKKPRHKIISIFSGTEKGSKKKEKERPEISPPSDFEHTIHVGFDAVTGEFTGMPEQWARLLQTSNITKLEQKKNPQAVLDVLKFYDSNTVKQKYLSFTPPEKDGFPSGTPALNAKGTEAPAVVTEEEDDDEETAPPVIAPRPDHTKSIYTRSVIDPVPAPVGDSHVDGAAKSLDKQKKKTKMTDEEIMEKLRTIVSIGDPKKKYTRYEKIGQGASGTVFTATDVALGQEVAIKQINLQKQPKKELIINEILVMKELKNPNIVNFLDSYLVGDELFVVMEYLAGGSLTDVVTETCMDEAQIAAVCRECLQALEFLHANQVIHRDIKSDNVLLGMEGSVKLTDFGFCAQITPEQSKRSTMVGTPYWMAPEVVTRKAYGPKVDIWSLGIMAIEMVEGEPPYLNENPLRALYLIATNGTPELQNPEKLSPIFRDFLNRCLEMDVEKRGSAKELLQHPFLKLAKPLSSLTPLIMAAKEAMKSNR
AKT1 (PKB alpha), sequence (P31749 whole entry): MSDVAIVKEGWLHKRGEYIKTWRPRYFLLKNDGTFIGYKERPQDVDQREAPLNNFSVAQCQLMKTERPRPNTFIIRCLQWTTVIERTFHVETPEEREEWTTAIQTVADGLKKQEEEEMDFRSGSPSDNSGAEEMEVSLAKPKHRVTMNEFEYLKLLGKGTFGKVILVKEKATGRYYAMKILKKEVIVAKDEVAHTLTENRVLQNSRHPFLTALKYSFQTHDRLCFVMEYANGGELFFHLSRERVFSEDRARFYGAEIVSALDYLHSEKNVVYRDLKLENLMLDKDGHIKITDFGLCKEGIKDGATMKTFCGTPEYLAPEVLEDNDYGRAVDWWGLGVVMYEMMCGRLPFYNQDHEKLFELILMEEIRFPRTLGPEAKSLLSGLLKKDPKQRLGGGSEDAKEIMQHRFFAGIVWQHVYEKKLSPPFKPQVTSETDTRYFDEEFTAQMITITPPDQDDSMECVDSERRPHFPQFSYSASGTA
PLK3, sequence (Q9H4B4 whole entry): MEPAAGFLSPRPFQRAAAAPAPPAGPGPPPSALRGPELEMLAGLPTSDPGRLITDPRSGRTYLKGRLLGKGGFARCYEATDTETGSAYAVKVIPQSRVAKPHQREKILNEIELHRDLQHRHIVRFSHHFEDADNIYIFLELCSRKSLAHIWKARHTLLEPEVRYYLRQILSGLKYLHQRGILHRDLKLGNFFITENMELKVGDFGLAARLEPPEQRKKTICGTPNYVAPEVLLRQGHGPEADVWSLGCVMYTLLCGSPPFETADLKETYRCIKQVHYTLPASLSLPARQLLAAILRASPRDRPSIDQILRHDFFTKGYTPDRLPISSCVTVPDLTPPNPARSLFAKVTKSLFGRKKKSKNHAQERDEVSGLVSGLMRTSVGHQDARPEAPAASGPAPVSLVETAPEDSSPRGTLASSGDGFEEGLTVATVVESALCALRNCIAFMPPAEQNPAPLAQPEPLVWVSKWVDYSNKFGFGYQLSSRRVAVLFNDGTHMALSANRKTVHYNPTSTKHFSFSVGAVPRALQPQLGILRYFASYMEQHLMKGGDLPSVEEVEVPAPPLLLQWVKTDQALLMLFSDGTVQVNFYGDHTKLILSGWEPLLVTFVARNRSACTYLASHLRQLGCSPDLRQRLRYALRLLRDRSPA

Usually inhibition stands for the change of the read-out against control, counted positive when it falls. Regarding `O=C(CSc1nc2nccnc2c(=O)n1CCc1ccccc1)Nc1nccs1` [compound 1, PITCOIN1], the inhibition at 1 µM at PAK2 (PAK65) was 2.87%; against PDK1 it was 8.23%; at DCAMKL1 (DCLK1), -1.36%; against AKT1 (PKB alpha), 1.93%; against PLK3, 3.02%; at FLT3, 9.16%. The inhibition at 3 µM against PAK2 (PAK65) was -3.37%; at PDK1 it was 7.27%; at DCAMKL1 (DCLK1), -3.92%; at AKT1 (PKB alpha), 0.317%; on PLK3 it was 3.24%; at FLT3, 8.82%. Also, the inhibition at 10 µM came out at 3.3% on PAK2 (PAK65); 6.69% against PDK1; 1.03% against DCAMKL1 (DCLK1); 0.625% at AKT1 (PKB alpha); 5.6% against PLK3; 8.33% on FLT3.

In the case of `CS(=O)(=O)Nc1cccc(-c2csc(NC(=O)CSc3nc4nccnc4c(=O)n3CCc3ccccc3)n2)c1` [compound 3, PITCOIN3], the inhibition at 1 µM against PAK2 (PAK65) is 4.79%; against PDK1, 9.47%; against DCAMKL1 (DCLK1), -7.05%; against AKT1 (PKB alpha) it was -1.18%; against PLK3 it was 3.58%; at FLT3, 12.3%. Also, the inhibition at 3 µM was 5.93% against PAK2 (PAK65); 5.91% at PDK1; -11.7% against DCAMKL1 (DCLK1); 7.49% at AKT1 (PKB alpha); 4.83% on PLK3; 11% at FLT3. In addition, the inhibition at 10 µM came to 0.538% against PAK2 (PAK65); 10.5% at PDK1; 13.7% at DCAMKL1 (DCLK1); 3.66% on AKT1 (PKB alpha); 4.26% on PLK3; 12.7% against FLT3.
